According to ChEMBL document CHEMBL1201862, “PubChem BioAssay data set” (2004):
Values belong to the compound of their own block, whether it stands above or below them. Active and inactive are the calls of the source.

Experiments:
[1] = target: Sphingosine 1-phosphate receptor 1 (Homo sapiens, UniProt P21453); assay: Fluorescence-based counterscreen assay for S1P4 agonists: Cell-based dose response high throughput screening assay to identify agonists of the Sphingosine 1-Phosphate Receptor 1 (S1P1). [Related pubchem assays (depositor defined):AID1509, AID1523, AID1801, AID463107, AID463118, AID463119, AID463122, AID463123, AID463129, AID463225, AID504400, AID504460]; assay type: functional
[2] = target: Sphingosine 1-phosphate receptor 4 (Homo sapiens, UniProt O95977); assay: Fluorescence dose response cell-based high throughput screening assay for agonists of the Sphingosine 1-Phosphate Receptor 4 (S1P4). [Related pubchem assays: 1509 (Primary screen.), 1523 (Confirmation screen in triplicates.)]; assay type: functional
[3] = HEp-2 cell cytotoxicity, dose response, cytotoxicity control for RSV inhibitor project, HTS (AID 2410); assay type: functional; conditions: human respiratory syncytial virus
[4] = mammalian cell cytotoxicity, dose response, cytotoxicity control, plate reader, cherry-pick samples (AID 504397); assay type: functional, cell-based
HeLa = assay: HeLa cell cytotoxicity, dose response, cytotoxicity control for MITF activator project, CellTiter-Glo luminescence, cherry-pick samples (AID 540259); assay type: functional, cell-based; conditions: Homo sapiens
[5] = target: T1, G-protein coupled receptor 55 (Homo sapiens, UniProt Q9Y2T6); assay: GPR55 antagonists blocking LPI-driven arrestin recruitment, primary screen, imaging, U2OS, beta-arrestin-GFP, LPI agonist (AID 2013); assay type: functional;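 also: antagonist potency measured as reduced agonist-driven arrestin aggregation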
Cannabinoid receptor 1 [6] = target: T2, Cannabinoid receptor 1 (Homo sapiens, UniProt P21554); assay: SAR analysis of antagonists of the Cannabinoid Receptor 1 using an Image-Based Assay - Set 2. [Related pubchem assays (depositor defined):AID2013, AID2026]; assay type: functional
[7] = target: T3, G-protein coupled receptor 35 (Homo sapiens, UniProt Q9HC97); assay: SAR analysis of Agonists of the GPR35 Receptor using an Image-Based Assay - Set 2. [Related pubchem assays (depositor defined):AID2013, AID2026]; assay type: functional
Cannabinoid receptor 2 [8] = target: T4, Cannabinoid receptor 2 (Homo sapiens, UniProt P34972); assay: SAR analysis of antagonists of the Cannabinoid Receptor 2 using an Image-Based Assay. [Related pubchem assays (depositor defined):AID2013, AID2026]; assay type: functional
Cannabinoid receptor 1 [9] = target: T2, Cannabinoid receptor 1; assay: SAR analysis of agonists of the Cannabinoid Receptor 1 using an Image-Based Assay - Set 2. [Related pubchem assays (depositor defined):AID2013, AID2026]; assay type: functional
[10] = target: T3, G-protein coupled receptor 35; assay: SAR analysis of Antagonists of the GPR35 Receptor using an Image-Based Assay - Set 3. [Related pubchem assays (depositor defined):AID2013, AID2026]; assay type: functional
[11] = target: T1, G-protein coupled receptor 55; assay: GPR55 antagonist potency of analogs, SAR follow-up, imaging, U2OS, beta-arrestin-GFP, LPI agonist, set 2 (AID 2820); assay type: functional
Cannabinoid receptor 2 [12] = target: T4, Cannabinoid receptor 2; assay: SAR analysis of agonists of the Cannabinoid Receptor 2 using an Image-Based Assay. [Related pubchem assays (depositor defined):AID2013, AID2026]; assay type: functional
[13] = target: T3, G-protein coupled receptor 35; assay: SAR analysis of Agonists of the GPR35 Receptor using an Image-Based Assay - Set 4. [Related pubchem assays (depositor defined):AID2013, AID2026]; assay type: functional
Cannabinoid receptor 1 [14] = target: T2, Cannabinoid receptor 1; assay: SAR analysis of agonists of the Cannabinoid Receptor 1 using an Image-Based Assay - Set 4. [Related pubchem assays (depositor defined):AID2013, AID2026]; assay type: functional
[15] = target: T3, G-protein coupled receptor 35; assay: SAR analysis of Antagonists of the GPR35 Receptor using an Image-Based Assay - Set 6. [Related pubchem assays (depositor defined):AID2013, AID2026]; assay type: functional
Cannabinoid receptor 1 [16] = target: T2, Cannabinoid receptor 1; assay: SAR analysis of antagonists of the Cannabinoid Receptor 1 using an Image-Based Assay - Set 4. [Related pubchem assays (depositor defined):AID2013, AID2026]; assay type: functional
[17] = target: T1, G-protein coupled receptor 55; assay: SAR Analysis of Selective Antagonists of GPR55 using an Image-Based Assay - Set 4. [Related pubchem assays (depositor defined):AID2013, AID2026]; assay type: functional
Cannabinoid receptor 2 [18] = target: T4, Cannabinoid receptor 2; assay: SAR analysis of antagonists of the Cannabinoid Receptor 2 using an Image-Based Assay - Set 3. [Related pubchem assays (depositor defined):AID2013, AID2026]; assay type: functional
Cannabinoid receptor 2 [19] = target: T4, Cannabinoid receptor 2; assay: SAR analysis of agonists of the Cannabinoid Receptor 2 using an Image-Based Assay - Set 3. [Related pubchem assays (depositor defined):AID2013, AID2026]; assay type: functional
[20] = target: Kappa-type opioid receptor (Homo sapiens, UniProt P41145); assay: SAR analysis of small molecule agonists of the kappa opioid receptor via a luminescent beta-arrestin assay - Set 3. [Related pubchem assays (depositor defined):AID1777, AID1785, AID1786, AID1966, AID2133, AID2136, AID2284, AID2500]; assay type: functional
[21] = target: T5, Tyrosine-protein phosphatase non-receptor type 22 (Homo sapiens, UniProt Q9Y2R2); assay: LYP1 Fluorescent Assay using OMFP substrate for In Vitro dose response studies. [Related pubchem assays (depositor defined):AID1779, AID1784, AID435024]
T5 sequence (Q9Y2R2 whole entry): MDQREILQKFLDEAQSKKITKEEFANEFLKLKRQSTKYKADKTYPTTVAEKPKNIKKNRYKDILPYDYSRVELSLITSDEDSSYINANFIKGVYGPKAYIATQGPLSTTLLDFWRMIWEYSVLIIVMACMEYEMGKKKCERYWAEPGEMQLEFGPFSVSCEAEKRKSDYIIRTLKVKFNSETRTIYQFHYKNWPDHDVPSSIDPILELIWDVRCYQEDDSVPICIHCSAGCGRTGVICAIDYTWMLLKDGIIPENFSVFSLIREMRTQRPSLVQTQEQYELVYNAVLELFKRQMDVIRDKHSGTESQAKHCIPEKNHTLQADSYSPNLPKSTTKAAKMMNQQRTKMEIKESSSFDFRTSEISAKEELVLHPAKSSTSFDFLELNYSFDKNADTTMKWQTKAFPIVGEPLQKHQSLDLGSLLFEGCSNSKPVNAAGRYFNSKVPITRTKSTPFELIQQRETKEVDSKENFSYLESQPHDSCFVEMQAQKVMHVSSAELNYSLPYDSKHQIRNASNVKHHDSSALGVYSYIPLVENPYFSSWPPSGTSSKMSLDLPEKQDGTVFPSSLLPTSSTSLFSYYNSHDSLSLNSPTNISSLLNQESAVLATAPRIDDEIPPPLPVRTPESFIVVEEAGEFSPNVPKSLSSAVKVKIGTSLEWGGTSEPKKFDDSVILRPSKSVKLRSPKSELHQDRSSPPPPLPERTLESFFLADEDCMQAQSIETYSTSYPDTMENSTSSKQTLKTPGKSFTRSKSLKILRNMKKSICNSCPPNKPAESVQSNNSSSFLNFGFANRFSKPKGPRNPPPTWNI

[22] = target: T6, Tyrosine-protein phosphatase non-receptor type 7 (Homo sapiens, UniProt P35236); assay type: functional
T6 sequence (P35236 whole entry): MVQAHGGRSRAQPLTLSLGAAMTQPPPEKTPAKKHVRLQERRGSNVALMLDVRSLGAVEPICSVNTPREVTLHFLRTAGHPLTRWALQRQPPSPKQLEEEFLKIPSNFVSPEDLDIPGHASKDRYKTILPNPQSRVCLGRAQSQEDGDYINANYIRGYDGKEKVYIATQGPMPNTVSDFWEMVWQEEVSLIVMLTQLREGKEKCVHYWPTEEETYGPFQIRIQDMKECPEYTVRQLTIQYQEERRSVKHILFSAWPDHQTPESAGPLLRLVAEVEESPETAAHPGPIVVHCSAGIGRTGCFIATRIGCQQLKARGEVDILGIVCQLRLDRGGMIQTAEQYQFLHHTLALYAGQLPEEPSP

[23] = target: T6, Tyrosine-protein phosphatase non-receptor type 7; assay: HTS HePTP Fluorescent Assay using OMFP substrate for In Vitro dose response studies. [Related pubchem assays (depositor defined):AID1059, AID1077, AID1784, AID2068, AID2085, AID435032, AID521]; assay type: functional
[24] = target: T5, Tyrosine-protein phosphatase non-receptor type 22; assay: inhibitors of LYP phosphatase, biochemical, fluorescence intensity, uHTS (AID 1779)
[25] = target: T5, Tyrosine-protein phosphatase non-receptor type 22; assay type: functional
[26] = target: T5, Tyrosine-protein phosphatase non-receptor type 22; assay type: functional; remark: listed apart in the source

T2 sequence (P21554 whole entry): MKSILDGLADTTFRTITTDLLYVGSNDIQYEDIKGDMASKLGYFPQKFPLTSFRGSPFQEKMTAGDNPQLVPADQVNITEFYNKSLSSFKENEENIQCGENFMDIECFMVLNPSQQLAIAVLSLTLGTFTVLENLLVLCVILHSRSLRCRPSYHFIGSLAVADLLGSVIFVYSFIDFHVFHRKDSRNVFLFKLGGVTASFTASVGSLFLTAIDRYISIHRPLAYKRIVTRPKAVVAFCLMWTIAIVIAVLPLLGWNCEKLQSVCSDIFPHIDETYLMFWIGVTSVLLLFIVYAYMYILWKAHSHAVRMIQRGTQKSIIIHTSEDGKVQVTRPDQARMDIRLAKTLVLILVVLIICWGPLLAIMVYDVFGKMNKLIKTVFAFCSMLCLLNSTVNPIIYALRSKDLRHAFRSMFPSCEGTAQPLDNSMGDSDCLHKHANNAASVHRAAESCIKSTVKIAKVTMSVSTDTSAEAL
T4 sequence (P34972 whole entry): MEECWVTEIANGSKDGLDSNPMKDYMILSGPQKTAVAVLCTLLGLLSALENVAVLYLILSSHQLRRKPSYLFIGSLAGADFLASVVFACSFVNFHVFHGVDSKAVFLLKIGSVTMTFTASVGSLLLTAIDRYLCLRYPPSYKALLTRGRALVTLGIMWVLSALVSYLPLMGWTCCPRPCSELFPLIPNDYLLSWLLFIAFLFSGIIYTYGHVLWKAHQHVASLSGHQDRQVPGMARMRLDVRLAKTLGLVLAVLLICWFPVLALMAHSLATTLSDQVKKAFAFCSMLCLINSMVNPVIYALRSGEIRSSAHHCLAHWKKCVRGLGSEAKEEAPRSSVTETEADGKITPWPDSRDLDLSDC
T3 sequence (Q9HC97 whole entry): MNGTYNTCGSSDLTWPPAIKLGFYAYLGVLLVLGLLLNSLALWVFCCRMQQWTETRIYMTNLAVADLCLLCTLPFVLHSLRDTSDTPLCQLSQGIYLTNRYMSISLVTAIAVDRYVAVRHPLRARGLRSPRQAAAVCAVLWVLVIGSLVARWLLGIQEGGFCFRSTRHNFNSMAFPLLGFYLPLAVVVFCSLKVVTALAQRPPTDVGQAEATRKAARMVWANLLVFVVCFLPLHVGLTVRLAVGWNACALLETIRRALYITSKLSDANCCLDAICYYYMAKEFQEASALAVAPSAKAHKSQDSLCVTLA
T1 sequence (Q9Y2T6 whole entry): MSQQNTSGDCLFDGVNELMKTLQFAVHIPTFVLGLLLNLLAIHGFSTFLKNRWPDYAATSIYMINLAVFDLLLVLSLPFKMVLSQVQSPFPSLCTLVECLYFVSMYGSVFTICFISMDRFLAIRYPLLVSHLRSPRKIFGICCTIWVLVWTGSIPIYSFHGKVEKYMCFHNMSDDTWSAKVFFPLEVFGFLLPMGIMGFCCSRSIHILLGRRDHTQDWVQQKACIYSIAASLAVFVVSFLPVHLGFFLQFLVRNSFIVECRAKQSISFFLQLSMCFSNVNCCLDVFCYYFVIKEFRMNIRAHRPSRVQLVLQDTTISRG
Sequence of Sphingosine 1-phosphate receptor 1 (P21453 whole entry): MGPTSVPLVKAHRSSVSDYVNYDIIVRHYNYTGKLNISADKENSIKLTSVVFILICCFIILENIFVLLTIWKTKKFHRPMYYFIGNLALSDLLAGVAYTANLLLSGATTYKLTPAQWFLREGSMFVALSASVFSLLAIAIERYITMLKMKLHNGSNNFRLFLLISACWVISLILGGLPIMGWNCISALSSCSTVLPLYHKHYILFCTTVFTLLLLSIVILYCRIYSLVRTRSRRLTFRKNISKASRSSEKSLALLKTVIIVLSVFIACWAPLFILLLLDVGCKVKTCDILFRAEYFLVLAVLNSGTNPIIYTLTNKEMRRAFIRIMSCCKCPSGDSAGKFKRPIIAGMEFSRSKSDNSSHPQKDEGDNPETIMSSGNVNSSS
Sequence of Sphingosine 1-phosphate receptor 4 (O95977 whole entry): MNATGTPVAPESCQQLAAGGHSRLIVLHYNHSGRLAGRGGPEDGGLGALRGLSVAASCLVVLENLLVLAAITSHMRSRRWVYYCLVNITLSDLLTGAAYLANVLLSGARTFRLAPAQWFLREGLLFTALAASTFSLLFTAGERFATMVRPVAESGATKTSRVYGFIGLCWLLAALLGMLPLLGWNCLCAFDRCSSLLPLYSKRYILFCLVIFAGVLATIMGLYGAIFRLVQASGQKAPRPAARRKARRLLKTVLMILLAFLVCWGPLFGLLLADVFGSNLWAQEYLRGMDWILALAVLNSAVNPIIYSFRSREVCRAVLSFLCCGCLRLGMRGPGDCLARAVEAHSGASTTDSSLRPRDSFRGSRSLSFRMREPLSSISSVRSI
Sequence of Kappa-type opioid receptor (P41145 whole entry): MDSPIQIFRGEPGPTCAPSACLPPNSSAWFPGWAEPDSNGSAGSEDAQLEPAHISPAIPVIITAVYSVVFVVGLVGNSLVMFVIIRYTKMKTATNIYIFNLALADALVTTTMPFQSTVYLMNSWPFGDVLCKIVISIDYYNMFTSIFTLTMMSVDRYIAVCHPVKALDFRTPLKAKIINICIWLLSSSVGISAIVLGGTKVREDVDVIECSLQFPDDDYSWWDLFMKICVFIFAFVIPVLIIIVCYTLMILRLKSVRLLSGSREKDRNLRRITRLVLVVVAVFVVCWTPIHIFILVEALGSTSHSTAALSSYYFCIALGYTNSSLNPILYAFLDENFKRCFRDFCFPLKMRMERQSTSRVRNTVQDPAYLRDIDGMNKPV

SMILES: Cn1c(-c2cc3ccc(OC(=O)C(C)(C)C)cc3oc2=O)nc2ccccc21
- EC50 [1]: 33.5 µM (inactive)
- EC50 [2]: 37 µM (not active)

SMILES: COc1cccc2sc3ccc(C#CC4(O)CCCCC4)cc3c(=O)c12
- CC50 [3]: 13.9 µM (active)
- AC50 [4]: 85.7 µM (active)
- AC50 (HeLa): 39.6 µM (active)

SMILES: COC(=O)C1=C(N)c2ccccc2C1(C#N)c1ccccc1 (configuration not stated)
- IC50 [5]: 1.76 µM (active)
- IC50 (Cannabinoid receptor 1 [6]): > 32 µM (inactive)
- EC50 [7]: > 32 µM (inactive)
- IC50 (Cannabinoid receptor 2 [8]): > 32 µM (inactive)
- EC50 (Cannabinoid receptor 1 [9]): > 32 µM (inactive)
- IC50 [10]: > 32 µM (inactive)
- IC50 [11]: 2.36 µM (active)
- EC50 (Cannabinoid receptor 2 [12]): > 32 µM (inactive)

SMILES: O=C(N/N=C/c1ccc2c(c1)OCO2)c1cc(-c2ccncc2)nc2ccccc12
- IC50 [21]: > 99 µM (inactive)
- IC50 [22]: > 79.4 µM (inactive)
- IC50 [23]: > 99 µM (inactive)
- IC50 [24]: > 99 µM (inactive)
- IC50 [25]: > 79.4 µM (inactive)
- IC50 [26]: > 79.4 µM (inactive)

The remaining lines, values ahead:

- EC50 [13]: > 32 µM (inactive)
- EC50 (Cannabinoid receptor 1 [14]): > 32 µM (inactive)
- IC50 [15]: > 32 µM (inactive)
- IC50 (Cannabinoid receptor 1 [16]): 4.14 µM (active)
- IC50 [17]: 18.4 µM (inactive)
- IC50 (Cannabinoid receptor 2 [18]): 23.8 µM (inactive)
- EC50 (Cannabinoid receptor 2 [19]): > 32 µM (inactive)
SMILES: CCOc1ccc(-c2n[nH]c(C)c2-c2ccccc2)c(O)c1

- EC50 [20]: 11 µM (inactive)
SMILES: FC(F)(F)c1cc(CSc2nnc(-c3ccc(Br)cc3)n2Cc2ccco2)ccc1Cl
